Experimental data reported in PubChem BioAssay AID179 (DTP/NCI, 2004).
Calls of active or inactive are those of the source.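 Rule for the calls: active = compounds giving half or more protection of infected cells from virus-caused growth loss, again on retest; inactive = the rest.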

System: CEM cells HIV-1 protection, formazan growth assay
Assay: NCI AIDS Antiviral Assay
Settings: for IC50: measured here: growth of uninfected CEM cells
Summary of the method: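 Five concentrations of each compound were applied to infected and uninfected human CEM cells. Protection from HIV-1 was judged from growth measured with a soluble formazan assay.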

Row | SMILES | outcome | EC50 | IC50
1 | CC1(c2ccccc2)OC(=O)c2c1ccc1ccccc21 (stereo not drawn) | inactive |  | 
2 | C/C(O)=C(/C=NC(=S)c1ccncc1)C(=O)Nc1ccccc1 |  | > 200 µM | > 200 µM
3 | Cc1cn(C2CCC(CO)O2)c(=O)[nH]c1=O (stereo not drawn) |  | 162 µM | > 200 µM
4 | CC(=O)OCC1CCC(=C2C(=O)OC(C)(C)OC2=O)N1 (stereo not drawn) |  | > 200 µM | > 200 µM
5 | Cn1c2c(c3ccccc31)CCN(CCCCN1CCN(c3ccccc3)CC1)C2=O |  | > 30.9 µM | > 30.9 µM
6 | CSc1ccc(C(=C=C=C(c2ccc(SC)s2)c2ccc(SC)s2)c2ccc(SC)s2)s1 |  | > 200 µM | > 200 µM
7 | Brc1ccc2c(c1)[C@H]1CCc3c([nH]c4ccccc34)[C@H]1N2 |  | > 200 µM | 25.7 µM
8 | O=C(OCC1OC2OC(c3ccccc3)(n3ccc4c([N+](=O)[O-])ccnc43)OC2C1OC(=O)c1ccccc1)c1ccccc1 (stereo not drawn) |  | > 200 µM | 145 µM
9 | O=C1c2ccc3cc(CCl)cc(O)c3c2C(=O)c2cccc(O)c21 |  | > 200 µM | 5.25 µM
10 | Cc1ccc(C(=O)OC(C)C)cc1N=NN(C)C |  | > 55 µM | > 55 µM
11 | CC(C)(C)c1cc(Nc2ccc([N+](=O)[O-])cc2[N+](=O)[O-])cc(C(C)(C)C)c1O |  | > 13.5 µM | > 13.5 µM
12 | Cc1[nH]n(C2=NCCN2)c(=O)c1Cc1ccccc1 |  | > 200 µM | > 200 µM
13 | Cc1nc2ccc(N=Nc3c(O)ccc4ccccc34)cc2[nH]1 |  | > 61.7 µM | 55 µM
14 | CCCCC(=O)c1c(O)nc2sccn2c1=O |  | > 200 µM | 155 µM
15 | CC1SC2=NC3=C(c4ccccc4C3=O)C(c3ccc(F)cc3)N2C1=O (stereo not drawn) |  | > 37.2 µM | > 37.2 µM
16 | CC(=Nc1cccc(Cl)c1)c1ccncc1 | inactive |  | 
17 | NNC(=O)CCC(=O)Nc1cc(Cl)c(Cl)cc1Cl |  | > 115 µM | > 115 µM
18 | N/N=C(N)/C(N)=N/N | inactive |  | 
19 | O=C1/C(=C\c2ccccc2)c2ccccc2N1/N=C\c1ccccc1 |  | > 30.9 µM | > 30.9 µM
20 | O=C1C2CC=CCC2C(=O)N1n1c(Cc2ccc(Cl)cc2)n[nH]c1=O (stereo not drawn) |  | > 200 µM | > 200 µM
21 | COC(=O)C(C(=O)C(=O)Nc1ccccc1C(C)=O)c1nc2ccc(Cl)cc2[nH]c1=O (stereo not drawn) |  | > 58.9 µM | > 58.9 µM
22 | Oc1cc(O)c2c(-c3c(O)c(-c4ccc(O)c(O)c4)[o+]c4cc(O)cc(O)c34)c(O)c(-c3ccc(O)c(O)c3)[o+]c2c1 | inactive |  | 
23 | CCOC(=O)CNC1C(NC(C)=O)C(OC)OC2COC(c3ccccc3)OC21 (stereo not drawn) | inactive |  | 

Row | SMILES | outcome | EC50 | IC50
24 | Nc1nc2c(c(-c3ccc(F)cc3)n1)COC/C2=C\c1ccc(F)cc1 |  | > 200 µM | 158 µM
25 | COc1ccc2c(c[n+](C)c3c4cc5c(cc4ccc23)OCO5)c1OC |  | > 3.24 µM | 0.372 µM
26 | O=C(Nc1c(NCC(O)C(O)C(O)CO)[nH]c(=O)[nH]c1=O)c1ccc(S(=O)(=O)F)cc1 (stereo not drawn) |  | > 200 µM | 117 µM
27 | O=C1c2ccccc2C(=O)N1C/C=N/NS(=O)(=O)c1cccc([N+](=O)[O-])c1 |  | > 646 µM | > 646 µM
28 | COc1cc(C2C(C(=O)NCc3ccccc3)=C(C)NC(C)=C2C(=O)NCc2ccccc2)ccc1O |  | > 72.4 µM | 49 µM
29 | COc1ccc(N2C(=O)C3c4[nH]c5ccc([N+](=O)[O-])cc5c4C4CCC(C(C)(C)C)CC4C3C2=O)cc1 (stereo not drawn) |  | > 200 µM | 18.2 µM
30 | c1ccc(CN2C3C4N(Cc5ccccc5)C2C2N(Cc5ccccc5)C(C(N2Cc2ccccc2)N4Cc2ccccc2)N3Cc2ccccc2)cc1 |  | > 100 µM | > 100 µM
31 | COc1ccc2nc(-c3cccs3)cc(C(O)CN3CCSCC3)c2c1 (stereo not drawn) | inactive |  | 
32 | CCOC(=O)C1(C(F)(F)F)N=C(CC)OC(N2CCOCC2)=N1 (stereo not drawn) |  | > 200 µM | > 200 µM
33 | N#Cc1nc(C(CO)N(Cc2ccccc2)C(=O)O)oc1N (stereo not drawn) |  | > 200 µM | > 200 µM
34 | Cc1cccc(C)c1NC(=O)C(=O)Nn1c(NN)nc2ccccc2c1=O |  | > 676 µM | 525 µM
35 | CCOc1cnn(-c2ccccc2)c(=O)c1Cl |  | > 1000 µM | 437 µM
36 | COc1ccc(/C=C(\C#N)c2ccccc2)cc1 |  | > 8.51 µM | 6.31 µM
37 | CCOC(=O)C1=C(C(=O)OCC)C2c3ccccc3C=CN2C(C(=O)OCC)=C(SC)S1 (stereo not drawn) |  | > 7.94 µM | > 7.94 µM
38 | CN(C)[C@@H]1C(=O)C(C(=O)NCNc2nc3n[nH]nc3c(=O)[nH]2)=C(O)[C@@]2(O)C(=O)C3=C(O)c4c(O)cccc4[C@@](C)(O)[C@H]3C[C@@H]12 |  | > 0.891 µM | 0.562 µM
39 | COC(=O)c1ccc2c(c1)CC1(C2)Cc2cc3c(cc2C1=O)CCC3 (stereo not drawn) |  | > 200 µM | 20 µM
40 | CCN=C(NC(=O)c1ccc(F)cc1)SCSC(=NCC)NC(=O)c1ccc(F)cc1 |  | > 200 µM | > 200 µM
41 | N#C/C(=C\c1cc(Cl)cc(Cl)c1O)c1nc2ccccc2[nH]1 |  | > 200 µM | 30.9 µM
42 | CN(CC#N)[C@H]1CCC[C@]1(O)C#C[Si](C)(C)c1ccccc1 |  | > 16.6 µM | > 16.6 µM
43 | O=N/C(=C(\c1ccccc1)N1CCOCC1)c1ccccc1 | inactive |  | 
44 | CCCCCCCCCC1CC(=O)c2c(O)cccc2O1 (stereo not drawn) |  | > 18.2 µM | > 18.2 µM
45 | CCCc1cc(=O)oc2c3c(c4c(c12)OC(C)(C)CC4)O[C@H](C)[C@@H](C)[C@H]3O |  | > 200 µM | 10.7 µM
